System: HepG2 (hepatocellular carcinoma cells)
Experiment: Oxygen consumption rate (OCR) in HepG2 cells, Seahorse XFe96 Extracellular Flux Analyzer
Type: cell-based
Protocol: HepG2 (hepatocellular carcinoma cells) were utilized in a Seahorse XFe96 Extracellular Flux Analyzer to analyze Compound (A)'s and the phenolic metabolite of the compound of formula (I)'s (“DNP”) effect on oxygen consumption rate (OCR).
30,000 HepG2 cells in MEM Alpha growth medium+10% Fetal Bovine Serum were seeded in XFe 96-well cell culture plate and incubated overnight at 37 °C with 5% CO2. The following day, cells were transferred to assay media (DMEM basal assay medium containing 10 mM Glucose 2 mM Glutamine, 1 mM Sodium Pyruvate, adjusted to pH7.4 with IN NaOH) and OCR was measured in a Seahorse XFe96 Extracellular Flux Analyzer according to the manufacturer's instructions. The effect of novel compounds on OCR was assayed in quadruplicates, at three different concentrations and in three separate experiments. The concentration that reaches half their maximum effect (EC50) and maximum OCR (Emax) increase as compared to DNP (100%) over untreated cells (0%) was calculated as an average between the three independent experiments. For data analysis GraphPad Prism was utilized.

O=[N+]([O-])c1ccc(O)c([N+](=O)[O-])c1 [DNP]
Emax (maximum OCR increase as compared to DNP (100%) over untreated cells (0%)) (OCR values normalized to 100 μM DNP (Emax=100%), average of three independent experiments): 100%
effect on oxygen consumption rate (OCR) (result in words): increased oxygen consumption rate (OCR)
EC50 (three concentrations in quadruplicates, average of three independent experiments, read-out: EC50 (concentration that reaches half their maximum effect on OCR)): 22 µM

Source: patent US20260365625A1, “DEUTERIUM ENRICHED PHENYL DERIVATIVES FOR TREATING MITOCHONDRIARELATED DISORDERS OR CONDITIONS” (Rivus Pharmaceuticals, Inc., priority 2022, published 2026)
